Patent US20190031618A1, “BENZIMIDAZOLE DERIVATIVES USEFUL AS CB-1 INVERSE AGONISTS” (Janssen Pharmaceutica NV, priority 2015, published 2019)
Like-named read-outs stand apart in the source and are kept apart here.

Experiments:
Type in all cases: in vivo
[1] = system: DIO mice; assay: Chronic DIO Mouse: food intake, body weight, plasma insulin; settings: chronic DIO mouse, (Std Err)
Experimental: Male 14-20-week old diet-induced obese mice are ordered from Taconic. Mice were started on a 60% fat diet (D12492, Research Diets, New Brunswick, N.J.) at 6 weeks of age. Mice are single-housed.
(§1) DIO mice received vehicle, test compound (@ 1, 3, 10, and 30 mg/kg) daily for 26 days. At the end of the experiment, the mice were euthanized and blood and tissues were collected.
Body weight and food weight (food intake) were monitored daily for days 1-5 and twice weekly thereafter.
(§2) Blood glucose was measured from the tail vein with a Lifescan glucometer. Plasma insulin was measured with an ELISA or HTRF kit (Cisbio). Plasma parameters were measured with an Olympus clinical chemistry analyzer.

[2] = system: DIO mice; assay: Chronic DIO Mouse: oral glucose tolerance test; settings: for Oral Glucose Tolerance Test Blood Glucose AUC: day 23
Experimental: as §1
(§3) An insulin tolerance test (0.7 U/kg Humulin, ip) was performed on day 21 after a 4 hour food removal. Blood glucose was measured at 0, 15, 30, 60 and 120 minutes after insulin. After an overnight fast, an oral glucose tolerance test (2 g/kg glucose) was performed on day 23. Blood glucose was measured at 0, 30, 60 and 120 minutes after glucose challenge.
as §2

[3] = Chronic DIO Mouse: plasma and brain concentrations; settings: oral, DIO mice, 2 Hours Post Dose
Experimental: as §1

[4] = system: DIO mice; assay: Chronic DIO Mouse: insulin tolerance test; settings: for Insulin Tolerance Test Blood Glucose AUC (Std Err): day 21
Experimental: as §1, §3, §2

O=C(O)c1cccc(CN2CCC(n3c(C4CC4)nc4ccc(C(c5ccc(Cl)cc5)c5ccc(Cl)cc5)cc43)CC2)c1 [Example 148]
Mean Daily Food Intake ([1]; 10 mg/kg daily, Day 4): 1.7 (0.2) Grams
Mean Daily Food Intake ([1]; 10 mg/kg daily, Day 5): 1.8 (0.2) Grams
Mean Daily Food Intake ([1]; 10 mg/kg daily, Day 8): 1.7 (0.1) Grams
Mean Daily Food Intake ([1]; 10 mg/kg daily, Day 11): 2.0 (0.1) Grams
Mean Daily Food Intake ([1]; 10 mg/kg daily, Day 15): 2.3 (0.1) Grams
Mean Daily Food Intake ([1]; 10 mg/kg daily, Day 18): 2.3 (0.1) Grams
Mean Daily Food Intake ([1]; 10 mg/kg daily, Day 24): 2.2 (0.2) Grams
Mean Daily Food Intake ([1]; 30 mg/kg daily, Day 2): 0.1 (0.1) Grams
Mean Daily Food Intake ([1]; 30 mg/kg daily, Day 3): 0.5 (0.1) Grams
Mean Daily Food Intake ([1]; 30 mg/kg daily, Day 4): 0.7 (0.1) Grams
Mean Daily Food Intake ([1]; 30 mg/kg daily, Day 5): 1.0 (0.2) Grams
Mean Daily Food Intake ([1]; 30 mg/kg daily, Day 8): 1.3 (0.2) Grams
Mean Daily Food Intake ([1]; 30 mg/kg daily, Day 11): 1.7 (0.2) Grams
Mean Daily Food Intake ([1]; 30 mg/kg daily, Day 15): 2.3 (0.1) Grams
Mean Daily Food Intake ([1]; 30 mg/kg daily, Day 18): 1.8 (0.2) Grams
Mean Daily Food Intake ([1]; 30 mg/kg daily, Day 24): 2.4 (0.1) Grams
Oral Glucose Tolerance Test Blood Glucose AUC ([2]; 1 mg/kg daily): 19362 mg·min/dL
Oral Glucose Tolerance Test Mean Blood Glucose ([2]; 1 mg/kg daily, day 23, 0 min after glucose): 139.90 mg/dL
Oral Glucose Tolerance Test Mean Blood Glucose ([2]; 1 mg/kg daily, day 23, 30 min after glucose): 179.2 mg/dL
Oral Glucose Tolerance Test Mean Blood Glucose ([2]; 1 mg/kg daily, day 23, 60 min after glucose): 168.5 mg/dL
Oral Glucose Tolerance Test Mean Blood Glucose ([2]; 1 mg/kg daily, day 23, 120 min after glucose): 143.5 mg/dL
Oral Glucose Tolerance Test Blood Glucose AUC ([2]; 3 mg/kg daily): 19705 mg·min/dL
Oral Glucose Tolerance Test Mean Blood Glucose ([2]; 3 mg/kg daily, day 23, 0 min after glucose): 154.89 mg/dL
Oral Glucose Tolerance Test Mean Blood Glucose ([2]; 3 mg/kg daily, day 23, 30 min after glucose): 153.11 mg/dL
Oral Glucose Tolerance Test Mean Blood Glucose ([2]; 3 mg/kg daily, day 23, 60 min after glucose): 183.89 mg/dL
Oral Glucose Tolerance Test Mean Blood Glucose ([2]; 3 mg/kg daily, day 23, 120 min after glucose): 150.44 mg/dL
Oral Glucose Tolerance Test Blood Glucose AUC ([2]; 10 mg/kg daily): 19740 mg·min/dL
Oral Glucose Tolerance Test Mean Blood Glucose ([2]; 10 mg/kg daily, day 23, 0 min after glucose): 141.60 mg/dL
Oral Glucose Tolerance Test Mean Blood Glucose ([2]; 10 mg/kg daily, day 23, 30 min after glucose): 190.1 mg/dL
Oral Glucose Tolerance Test Mean Blood Glucose ([2]; 10 mg/kg daily, day 23, 60 min after glucose): 176.2 mg/dL
Oral Glucose Tolerance Test Mean Blood Glucose ([2]; 10 mg/kg daily, day 23, 120 min after glucose): 132.8 mg/dL
Oral Glucose Tolerance Test Blood Glucose AUC ([2]; 30 mg/kg daily): 19276.5 mg·min/dL
Oral Glucose Tolerance Test Mean Blood Glucose ([2]; 30 mg/kg daily, day 23, 0 min after glucose): 125.30 mg/dL
Oral Glucose Tolerance Test Mean Blood Glucose ([2]; 30 mg/kg daily, day 23, 30 min after glucose): 184.5 mg/dL
Oral Glucose Tolerance Test Mean Blood Glucose ([2]; 30 mg/kg daily, day 23, 60 min after glucose): 179 mg/dL
Oral Glucose Tolerance Test Mean Blood Glucose ([2]; 30 mg/kg daily, day 23, 120 min after glucose): 126.9 mg/dL
concentration at 2 h ([3]; brain, 1 mg/kg daily, Day 25, read-out: Brain Concentration (Std Dev)): 18.2 ng/g
concentration at 2 h ([3]; brain, 3 mg/kg daily, Day 25, read-out: Brain Concentration (Std Dev)): 29.9 ng/g
concentration at 2 h ([3]; brain, 10 mg/kg daily, Day 25, read-out: Brain Concentration (Std Dev)): 42 ng/g
concentration at 2 h ([3]; brain, 30 mg/kg daily, Day 25, read-out: Brain Concentration (Std Dev)): 73.5 ng/g
concentration at 2 h ([3]; plasma, 1 mg/kg daily, Day 25, read-out: Plasma Concentration (Std Dev)): 0.288 µg/mL
concentration at 2 h ([3]; plasma, 3 mg/kg daily, Day 25, read-out: Plasma Concentration (Std Dev)): 1.35 µg/mL
concentration at 2 h ([3]; plasma, 10 mg/kg daily, Day 25, read-out: Plasma Concentration (Std Dev)): 3.43 µg/mL
concentration at 2 h ([3]; plasma, 30 mg/kg daily, Day 25, read-out: Plasma Concentration (Std Dev)): 15.2 µg/mL
Insulin Tolerance Test Blood Glucose AUC (Std Err) ([4]; 1 mg/kg daily): 19606.5 mg·min/dL
Insulin Tolerance Test Mean Blood Glucose (Std Err) ([4]; 1 mg/kg daily, day 21, 0 min after insulin): 194.8 mg/dL
Insulin Tolerance Test Mean Blood Glucose (Std Err) ([4]; 1 mg/kg daily, day 21, 15 min after insulin): 193.3 mg/dL
Insulin Tolerance Test Mean Blood Glucose (Std Err) ([4]; 1 mg/kg daily, day 21, 30 min after insulin): 155 mg/dL
Insulin Tolerance Test Mean Blood Glucose (Std Err) ([4]; 1 mg/kg daily, day 21, 60 min after insulin): 161.3 mg/dL
Insulin Tolerance Test Mean Blood Glucose (Std Err) ([4]; 1 mg/kg daily, day 21, 120 min after insulin): 150 mg/dL
Insulin Tolerance Test Blood Glucose AUC (Std Err) ([4]; 3 mg/kg daily): 17812.5 (1054.85) mg/dL * min
Insulin Tolerance Test Mean Blood Glucose (Std Err) ([4]; 3 mg/kg daily, day 21, 0 min after insulin): 185.9 (6.57) mg/dL
Insulin Tolerance Test Mean Blood Glucose (Std Err) ([4]; 3 mg/kg daily, day 21, 15 min after insulin): 160.9 (7.24) mg/dL
Insulin Tolerance Test Mean Blood Glucose (Std Err) ([4]; 3 mg/kg daily, day 21, 30 min after insulin): 138.9 (9.10) mg/dL
Insulin Tolerance Test Mean Blood Glucose (Std Err) ([4]; 3 mg/kg daily, day 21, 60 min after insulin): 150.9 (11.66) mg/dL
Insulin Tolerance Test Mean Blood Glucose (Std Err) ([4]; 3 mg/kg daily, day 21, 120 min after insulin): 136.3 (9.51) mg/dL
Insulin Tolerance Test Blood Glucose AUC (Std Err) ([4]; 10 mg/kg daily): 17930.25 (556.44) mg/dL * min
Insulin Tolerance Test Mean Blood Glucose (Std Err) ([4]; 10 mg/kg daily, day 21, 0 min after insulin): 168.8 (7.13) mg/dL
Insulin Tolerance Test Mean Blood Glucose (Std Err) ([4]; 10 mg/kg daily, day 21, 15 min after insulin): 172.6 (9.66) mg/dL
Insulin Tolerance Test Mean Blood Glucose (Std Err) ([4]; 10 mg/kg daily, day 21, 30 min after insulin): 139.1 (7.03) mg/dL
Insulin Tolerance Test Mean Blood Glucose (Std Err) ([4]; 10 mg/kg daily, day 21, 60 min after insulin): 146.7 (5.80) mg/dL
Insulin Tolerance Test Mean Blood Glucose (Std Err) ([4]; 10 mg/kg daily, day 21, 120 min after insulin): 144.8 (5.86) mg/dL
Insulin Tolerance Test Blood Glucose AUC (Std Err) ([4]; 30 mg/kg daily): 14575.5 mg·min/dL
Insulin Tolerance Test Mean Blood Glucose (Std Err) ([4]; 30 mg/kg daily, day 21, 0 min after insulin): 143 mg/dL
Insulin Tolerance Test Mean Blood Glucose (Std Err) ([4]; 30 mg/kg daily, day 21, 15 min after insulin): 147.6 mg/dL
Insulin Tolerance Test Mean Blood Glucose (Std Err) ([4]; 30 mg/kg daily, day 21, 30 min after insulin): 119.8 mg/dL
Insulin Tolerance Test Mean Blood Glucose (Std Err) ([4]; 30 mg/kg daily, day 21, 60 min after insulin): 121.3 mg/dL
Insulin Tolerance Test Mean Blood Glucose (Std Err) ([4]; 30 mg/kg daily, day 21, 120 min after insulin): 104.5 mg/dL
